Reference: patent publication US7192763B2, “Streptomyces anulatus microorganism and a process for producing the substance GM-95” (Sosei Co., Ltd., priority 2001, dated 2007)

How the values were obtained:
[1] = test system: Renca (mouse renal cancer); experiment: Tumor cell growth inhibition (crystal violet), Renca; type: cell-based; conditions: 72 hours, read-out: Concentrations for 50% growth inhibition of various tumor cells (IC50)
Description: (§1) Tumor cells described in Table 5 were suspended in RPMI1640 medium containing 10% fetal calf serum, plated into culture plates (38 mm) at the density of in 2×10^3 cells each, and cultured in 37° C., 5% CO2 incubator overnight. Subsequently, experimental agents (the compound of the invention and 5-fluorouracil) diluted to various concentrations using RPMI1640 medium containing 10% fetal calf serum were added to each plate, and further cultured for 72 hours. After the cell culture was completed, those cells were fixed with 25% glutalaldehyde for 15 minutes and washed with water three times. After that, the cells were stained with 0.05% crystal violet diluted in 20% methanol aqueous solution, washed with water three times and then dried. The crystal violet were extracted with 100 μl of 0.05M sodium dihydrogenphosphate/ethanol (1/1(v/v)), their absorbance at 540 nm were determined by an automatic spectroscope. “IC50” was defined as the concentration required for a 50% reduction in growth compared to the control absorbance.

[2] = test system: PC-3 (human prostate cancer); experiment: Tumor cell growth inhibition (crystal violet), PC-3; type: cell-based; conditions: 72 hours, read-out: Concentrations for 50% growth inhibition of various tumor cells (IC50)
Description: as §1

[3] = test system: TMK-1 (human gastric cancer); experiment: Tumor cell growth inhibition (crystal violet), TMK-1; type: cell-based; conditions: 72 hours, read-out: Concentrations for 50% growth inhibition of various tumor cells (IC50)
Description: as §1

[4] = test system: DLD-1 (human colon cancer); experiment: Tumor cell growth inhibition (crystal violet), DLD-1; type: cell-based; conditions: 72 hours, read-out: Concentrations for 50% growth inhibition of various tumor cells (IC50)
Description: as §1

[5] = test system: KM12C-SM (human colon cancer); experiment: Tumor cell growth inhibition (crystal violet), KM12C-SM; type: cell-based; conditions: 72 hours, read-out: Concentrations for 50% growth inhibition of various tumor cells (IC50)
Description: as §1

A375SM (human melanoma) = experiment: Tumor cell growth inhibition (crystal violet), A375SM; type: cell-based; conditions: A375-SM, 72 hours, read-out: Concentrations for 50% growth inhibition of various tumor cells (IC50)
Description: as §1

[6] = test system: SKOV-3 (human ovarian cancer); experiment: Tumor cell growth inhibition (crystal violet), SKOV-3; type: cell-based; conditions: SK-OV-3, 72 hours, read-out: Concentrations for 50% growth inhibition of various tumor cells (IC50)
Description: as §1

[7] = test system: ZR75-1 (human breast cancer); experiment: Tumor cell growth inhibition (crystal violet), ZR75-1; type: cell-based; conditions: ZR-75-1, 72 hours, read-out: Concentrations for 50% growth inhibition of various tumor cells (IC50)
Description: as §1

[8] = test system: OVCAR-3 (human ovarian cancer); experiment: Tumor cell growth inhibition (crystal violet), OVCAR-3; type: cell-based; conditions: 72 hours, read-out: Concentrations for 50% growth inhibition of various tumor cells (IC50)
Description: as §1

[9] = test system: PAN-3 (human pancreatic cancer); experiment: Tumor cell growth inhibition (crystal violet), PAN-3; type: cell-based; conditions: 72 hours, read-out: Concentrations for 50% growth inhibition of various tumor cells (IC50)
Description: as §1

[10] = test system: HT-29 (human colon cancer); experiment: Tumor cell growth inhibition (crystal violet), HT-29; type: cell-based; conditions: 72 hours, read-out: Concentrations for 50% growth inhibition of various tumor cells (IC50)
Description: as §1

[11] = test system: MCF-7 (human breast cancer); experiment: Tumor cell growth inhibition (crystal violet), MCF-7; type: cell-based; conditions: MCF7, 72 hours, read-out: Concentrations for 50% growth inhibition of various tumor cells (IC50)
Description: as §1

Solubilities in solvents = type: physicochemical
Source text: Insoluble in water and in acetone.
Soluble in a mixture of chloroform:methanol=1:1 • 8) Color of the substance: white yellowish powders • 9) Nuclear magnetic resonance spectrum

telomerase = molecular target: T1, telomerase (Homo sapiens, UniProt O14746); experiment: Telomerase-inhibiting activity using cell extracts containing telomerase; type: biochemical; conditions: read-out: concentration for inhibiting telomerase activity by 50% (IC50) in cell extracts
T1 construct: using cell extracts containing telomerase according to the conventional manner; endogenous in cells
Source text: The compound of the invention was subjected to the examination of telomerase-inhibiting activity using cell extracts containing telomerase according to the conventional manner, to provide the concentration for inhibiting telomerase activity by 50% (IC50) in cell extracts.

T1 sequence (O14746 whole entry): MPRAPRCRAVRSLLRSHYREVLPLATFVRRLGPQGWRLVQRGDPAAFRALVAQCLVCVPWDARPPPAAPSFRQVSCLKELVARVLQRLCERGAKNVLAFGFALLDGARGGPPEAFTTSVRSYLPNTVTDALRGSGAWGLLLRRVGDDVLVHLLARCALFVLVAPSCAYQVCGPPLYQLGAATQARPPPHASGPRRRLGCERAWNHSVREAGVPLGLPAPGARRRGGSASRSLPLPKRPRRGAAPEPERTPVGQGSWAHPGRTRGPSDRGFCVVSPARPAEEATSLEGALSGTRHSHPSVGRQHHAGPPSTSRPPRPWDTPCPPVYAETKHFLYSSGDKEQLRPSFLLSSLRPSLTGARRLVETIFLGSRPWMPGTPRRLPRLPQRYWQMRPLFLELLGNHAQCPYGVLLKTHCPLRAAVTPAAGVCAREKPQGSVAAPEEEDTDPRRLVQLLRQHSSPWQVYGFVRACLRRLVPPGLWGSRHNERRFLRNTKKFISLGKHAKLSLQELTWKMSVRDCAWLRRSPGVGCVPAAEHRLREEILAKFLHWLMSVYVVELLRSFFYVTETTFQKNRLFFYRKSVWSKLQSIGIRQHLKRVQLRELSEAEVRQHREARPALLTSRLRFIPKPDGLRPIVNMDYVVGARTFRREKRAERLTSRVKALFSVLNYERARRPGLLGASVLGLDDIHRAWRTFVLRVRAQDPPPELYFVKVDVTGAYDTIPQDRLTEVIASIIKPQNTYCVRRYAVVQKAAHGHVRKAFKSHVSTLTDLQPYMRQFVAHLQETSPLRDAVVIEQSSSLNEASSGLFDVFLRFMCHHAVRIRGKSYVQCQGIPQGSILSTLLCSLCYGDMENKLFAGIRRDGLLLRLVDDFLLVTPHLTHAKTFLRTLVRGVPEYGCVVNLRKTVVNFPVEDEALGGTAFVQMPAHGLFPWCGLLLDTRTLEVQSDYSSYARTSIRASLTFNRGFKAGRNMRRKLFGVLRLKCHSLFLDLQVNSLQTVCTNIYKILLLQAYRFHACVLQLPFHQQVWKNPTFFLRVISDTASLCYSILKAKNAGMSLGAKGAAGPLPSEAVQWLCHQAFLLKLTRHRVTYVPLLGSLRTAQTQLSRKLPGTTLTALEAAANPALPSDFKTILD

IC50 [1] [µM]	IC50 [2] [µM]	IC50 [3] [µM]	IC50 [4] [µM]	IC50 [5] [µM]	IC50 (A375SM (human melanoma)) [µM]	IC50 [6] [µM]	IC50 [7] [µM]	IC50 [8] [µM]	IC50 [9] [µM]	IC50 [10] [µM]	IC50 [11] [µM]	Solubility in acetone (Solubilities in solvents; acetone)	Solubility in a mixture of chloroform:methanol=1:1 (Solubilities in solvents; chloroform:methanol=1:1)	Solubility in water (Solubilities in solvents; water)	IC50 (telomerase) [µM]	SMILES
0.58	5.7	0.33	5.5	1.32	2.89	7.84	3.63	0.37	8.82	2.1	1.12					O=c1[nH]cc(F)c(=O)[nH]1 [5-fluorouracil, reference compound]
0.97	8.82	3.75	6.2	3.74	7.04	3.73	4.04	3.41	7.09	7.1	7.73	Insoluble	Soluble	Insoluble	0.05	Cc1oc2nc1-c1nc(co1)-c1nc(co1)-c1nc(co1)-c1nc(co1)-c1nc(co1)C1=NC(CS1)c1nc-2c(C)o1 (stereo not shown) [Substance GM-95]
